Experimental data: US4668684A, “Combination of flupirtin and anticholinergic acting spasmolytic” (priority 1985, dated 1987)
Counter-ions that a name gives are not always drawn. Like-named read-outs stand apart in the source and are kept apart here.

What was measured:
[1] = tested on: guinea pig small intestine; experiment: Spasmolytic effect on the guinea pig small intestine in situ (acetylcholine spasm); assay type: in vivo; details: for % Spasmolytic Effect / Spasmolytic activity (in words): alone; for % Spasmolytic Effect: negative value; for Spasmolytic activity (in words): intraduodenally
Procedure: A balloon catheter was introduced into the ileum of guinea pigs narcotized with urethane (1.8 g/kg subcutaneously) after tracheotomy (tying up a tracheal channel to make breathing easier) and the catheter filled with air. Rhythmic contractions were carried out by the intestine, the so-called […] (dependent upon filling), through which a pressure is exerted on the rubber balloon. The pressure […] changes were recorded on a linear recorder via a pressure recorder connected to the balloon catheter and a carrier frequency bridge (TF of Hellige Co.). On one there can be measured the spontaneous […], on the other the spasms released by superfusion of […] (acetylcholine iodide, barium chloride or carbachol). By previously giving the […] intravenously or intraduodenally the height of the spasms released is retarded and can be determined in percent spasmolysis compared to a starting value. There is given as spasmolytic effect or spasmolysis how great a percent of spasm is liberated by the spasmogen (e.g. acetylcholine iodide) compared to the value which originates from the spasmogen (on the same animal).

[2] = tested on: gall bladder of the mouse; experiment: Gall bladder model on the mouse, spasmolytic effect; assay type: in vivo, NMRI-Mouse; details: alone; for ED50: Mus musculus, po, peroral, linear regression
Procedure: The experiment is carried out relying on the methods of […] and Toson, J. Pharmacol. Methods Volume 7, pages 193 et. seq. (1982). The principle of this method is the gravimetric measurement of the gall bladder of the mouse. The gall bladder was stimulated through dispensation of egg yolk for delivery of bile. This delivery was carried out through natural spasms of the gall bladder. By previously dispensing a spasmolytically acting test material these spasms of the gall bladder were retarded and therewith likewise the delivery of bile. Thus the heavier the gall bladder is after dispensing the egg yolk the less bile it has delivered. The weight of the gall bladder in this test therefore is a measure of the spasmolytic effect of a material. […] The control animals received Methocel in the corresponding amount. […] Because of the evaluation 2 control groups must be present. […] The egg yolk suspension consisted of 3 parts by weight egg yolk in 7 parts by weight NaCl 0.9%. For this reason control group No. 1 also received 1 ml NaCl 0.9%. […] The gall bladder was prepared and weighed. The evaluation was carried out according to the formula: [(A-B)/(C-B)]×100=% Activity […]

[3] = tested on: gastrointestinal passage (guinea pigs); experiment: Carbon transport model (influence on the gastrointestinal passage); assay type: in vivo, guinea pig; details: alone; for ED50: peroral, linear regression; for Spasmolytic Effect, Retardation in %: negative value
Procedure: Relying on Komlus and Pet/o/ cz (and modifications) (1970) Arzneim Forsch. Volume 20, pages 1338-1357 guinea pigs received 30 minutes after being given the substance a 10% carbon suspension in demineralized water in a volume of 1 ml/animal dispensed with the stomach probe. 0.5 hours later the animals were killed and starting from the stomach there was measured on one animal the entire length of intestine, on the others the length of the stretch blackened by the carbon. The stretch changed by the carbon was calculated in percent of the entire length in order to compensate for the different intestinal lengths of the individual animals in the evaluation of the effect of the substance. The effect on the gastro-intestinal passage is given from the comparison between the control and the animals (average value) treated with the substances. Ascertaining the ED50 (dosage in mg/kg at which there is 50% retardation of the carbon transport) is by means of linear regression.
Retardation of carbon transport signifies spasmolytic effect. The greater this retardation the greater also is the spasmolytic effect.
*Calculation of the ED50 by means of linear regression

[4] = tested on: writhing syndrome (mouse); experiment: Acetic acid test (Writhing test) on the mouse, analgetic effect; assay type: in vivo, NMRI-Mouse; details: alone; for ED50: Mus musculus, po, 0.5 h, read-out: ED50 after 30 minutes; for Analgetic Effect in %: average of 10 mice
[5] = in vivo; details: mouse, po

SMILES: CCCC[N+]1(C)C2CC(OC(=O)C(CO)c3ccccc3)CC1C1OC12 (stereo not shown) [Butylscopolammonium bromide, butylscopolammonium bromide]
- % Spasmolytic Effect ([1]; 50.0 mg/kg intraduodenally, 30 minutes after dispensation): -13.1%
- % Spasmolytic Effect ([1]; 100.0 mg/kg intraduodenally, 30 minutes after dispensation): -37.9%
- % Spasmolytic Effect ([1]; 200.0 mg/kg intraduodenally, 30 minutes after dispensation): -35.0%
- Spasmolytic activity (in words) [1]: no dosage dependent spasmolytic activity
- ED50 [2]: 117 mg/kg
- Spasmolytic Effect in % ([2]; 3.0 mg/kg peroral): 4.6%
- Spasmolytic Effect in % ([2]; 10.0 mg/kg peroral): 19.1%
- Spasmolytic Effect in % ([2]; 30.0 mg/kg peroral): 20.7%
- Spasmolytic Effect in % ([2]; 100.0 mg/kg peroral): 35.9%
- Spasmolytic Effect in % ([2]; 300.0 mg/kg peroral): 76.6%
- ED50 ([3]; Cavia porcellus, po, read-out: ED50): 132 mg/kg
- Spasmolytic Effect, Retardation in % ([3]; 30.0 mg/kg peroral): -8.16%
- Spasmolytic Effect, Retardation in % ([3]; 100.0 mg/kg peroral): -58.39%
- Spasmolytic Effect, Retardation in % ([3]; 300.0 mg/kg peroral): -61.62%
- ED50 ([4]; per os, linear regression): 1.5 mg/kg
- Analgetic Effect in % ([4]; 0.5 mg/kg per os): 22.4%
- Analgetic Effect in % ([4]; 1.0 mg/kg per os): 48.4%
- Analgetic Effect in % ([4]; 2.0 mg/kg per os): 64.6%
- Analgetic Effect in % ([4]; 4.0 mg/kg per os): 59.0%

SMILES: CCOC(=O)Nc1ccc(NCc2ccc(F)cc2)nc1N [Flupirtin (Maleate), 2-amino-3-carbethoxyamino-6-(4-fluoro-benzylamino)-pyridine]
- Spasmolytic effect / ED50 (in words) ([1]; alone, 10.0, 30.0 and 50.0 mg/kg intraduodenally, 30 minutes after dispensation): no spasmolytic
- ED50 ([4]; per os, linear regression): 44.7 mg/kg
- Analgetic Effect in % ([4]; 20.0 mg/kg per os): 12.0%
- Analgetic Effect in % ([4]; 40.0 mg/kg per os): 54.0%
- Analgetic Effect in % ([4]; 80.0 mg/kg per os): 70.0%

SMILES: CC[N+](C)(CC)CCOC(C)(c1ccccc1)C1CC2C=CC1C2.[Br-] (stereo not shown) [Ciclonium bromide]
- Analgetic Effect in % ([4]; 0.01 mg/kg per os): 18.5%
- Analgetic Effect in % ([4]; 0.1 mg/kg per os): 46.3%
- Analgetic Effect in % ([4]; 0.5 mg/kg per os): 53.1%
- ED50 after 30 minutes ([4]; per os, linear regression): 0.26 mg/kg

SMILES: CCOC(=O)Nc1ccc(NCc2ccc(F)cc2)nc1N [Flupirtin (Gluconate), 2-amino-3-carbethoxyamino-6-(4-fluoro-benzylamino)-pyridine]
- Analgetic Effect in % ([4]; 0.56 mg/kg per os): 19.2%
- Analgetic Effect in % ([4]; 1.12 mg/kg per os): 28.0%
- Analgetic Effect in % ([4]; 2.24 mg/kg per os): 37.6%
- Analgetic Effect in % ([4]; 4.47 mg/kg per os): 46.4%
- Analgetic Effect in % ([4]; 8.93 mg/kg per os): 38.4%
- Analgetic Effect in % ([4]; 17.85 mg/kg per os): 22.4%
- Analgetic Effect in % ([4]; 35.7 mg/kg per os): 61.6%

SMILES: CCOC(=O)Nc1ccc(NCc2ccc(F)cc2)nc1N [Flupirtin, 2-amino-3-carbethoxyamino-6-(4-fluoro-benzylamino)-pyridine]
- Spasmolytic activity (in words) [1]: no spasmolytic activity
- LD50 [5]: 552 mg/kg
- ED50 [3]: cannot be calculated

SMILES: CCOC(=O)Nc1ccc(NCc2ccc(F)cc2)nc1N [Flupirtin (HCl), 2-amino-3-carbethoxyamino-6-(4-fluoro-benzylamino)-pyridine]
- ED50 [2]: 2.4 mg/kg
- Spasmolytic Effect in % ([2]; 1.0 mg/kg peroral): 30.06%
- Spasmolytic Effect in % ([2]; 3.0 mg/kg peroral): 64.36%
- Spasmolytic Effect in % ([2]; 10.0 mg/kg peroral): 69.25%
- Spasmolytic Effect, Retardation in % ([3]; 20.0 mg/kg peroral): -11.73%
- Spasmolytic Effect, Retardation in % ([3]; 40.0 mg/kg peroral): -21.55%
- Spasmolytic Effect, Retardation in % ([3]; 80.0 mg/kg peroral): -18.70%
- ED50 [3]: not dosage depen-
